Consider twelve compounds from ChEMBL document CHEMBL1201862, “PubChem BioAssay data set” (2004).

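Tested at 5 concentrations; 48 h exposure; 96-well plates; endpoints linearly interpolated, else capped at highest concentration. GI50 = concentration required for 50% inhibition of growth.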 Active and inactive are the calls of the source. Cut-off read from the data, not from the text of the source: active = GI50 up to about 1.1 µM and inactive = higher.

Some test systems named below: A498; CAKI-1; EKVX; HCT-116; KM-20L2; M19-MEL; MOLT-4; NCI-H226; NCI-H460; SF-295; SF-539; SK-MEL-2; SNB-75; TK-10; COLO 205; DU-145; LOX IMVI; MDA-MB-231; PC-3; T47D.
Experiment in all cases: growth of human tumour cells (NCI), 48 h

`COC1=CC(=O)OC(/C=C(C)/C=C/C2=C(C)CCCC2(C)C)C1` (centres undefined): the GI50 is > 100 µM (inactive) in the assay on A498; > 100 µM (inactive) in the assay with CAKI-1; > 100 µM (inactive) in the assay with EKVX; > 100 µM (inactive) with HCT-116; 36 µM (inactive) with KM-20L2; > 100 µM (inactive) in the assay with M19-MEL. Also, the GI50 in the assay with MOLT-4, in the assay on NCI-H226, in the assay on NCI-H460, in the assay with SF-295, in the assay with SF-539 and with SK-MEL-2 was > 100 µM (inactive) throughout. Moreover, the GI50 with SNB-75 and in the assay on TK-10 was > 100 µM (inactive) in each case.

For `C/C(CC(=O)CCC(=O)Nc1cccc(C(F)(F)F)c1)=N\NC(=O)NN`, the GI50 with A498, in the assay with CAKI-1, in the assay on COLO 205, in the assay with EKVX, in the assay with HCT-116 and with KM-20L2 was > 100 µM (inactive) each time. Besides, the GI50 with M19-MEL, in the assay with MOLT-4, in the assay with NCI-H226, in the assay with NCI-H460, with SF-295 and in the assay with SF-539 was > 100 µM (inactive) each time. Further, the GI50 in the assay on SK-MEL-2, with SNB-75 and in the assay with TK-10 was > 100 µM (inactive) in each case.

In the case of `O=C1CCCC/C1=C/C=C/c1ccccc1`, the GI50 is > 100 µM (inactive) in the assay with A498; > 100 µM (inactive) in the assay with CAKI-1; > 100 µM (inactive) with COLO 205; 64.6 µM (inactive) in the assay with DU-145; 43.7 µM (inactive) in the assay with HCT-116; 68.1 µM (inactive) in the assay with KM-20L2. The GI50 with LOX IMVI is 48.9 µM (inactive); in the assay on M19-MEL, 50.9 µM (inactive); in the assay on MOLT-4 it was 26.9 µM (inactive); with NCI-H226, > 100 µM (inactive); in the assay with NCI-H460, > 100 µM (inactive); in the assay with SF-295, 48.6 µM (inactive). In addition, the GI50 is > 100 µM (inactive) in the assay with SF-539, > 100 µM (inactive) in the assay with SK-MEL-2, 32.7 µM (inactive) in the assay on SNB-75 and > 100 µM (inactive) in the assay with TK-10.

Turning to `Nc1nc(NC2C=C(CO)C(O)C2O)c([N+](=O)[O-])c(=O)[nH]1` (centres undefined), the GI50 with A498, with CAKI-1, in the assay with COLO 205, with EKVX, with HCT-116 and with KM-20L2 was > 100 µM (inactive) in each case. For the same compound, the GI50 with LOX IMVI, with M19-MEL, in the assay on MOLT-4, in the assay with NCI-H226, in the assay on NCI-H460 and with SF-295 was > 100 µM (inactive) throughout. In addition, the GI50 with SF-539, in the assay with SK-MEL-2, with SNB-75 and in the assay on TK-10 was > 100 µM (inactive) throughout.

On to `CCOC(=O)c1ccc(/N=C\c2ccc(N(CCC#N)CCC#N)cc2)cc1`, for which the GI50 in the assay with A498 was > 100 µM (inactive); in the assay with CAKI-1 it was > 100 µM (inactive); in the assay on COLO 205, 53.7 µM (inactive); with EKVX, > 100 µM (inactive); with HCT-116, 48 µM (inactive); in the assay with KM-20L2, 27.7 µM (inactive). In addition, the GI50 is 44.2 µM (inactive) with LOX IMVI; 62.8 µM (inactive) with M19-MEL; 32.4 µM (inactive) in the assay on MOLT-4; > 100 µM (inactive) in the assay with NCI-H226; > 100 µM (inactive) in the assay with NCI-H460; > 100 µM (inactive) in the assay with SF-295. Moreover, the GI50 with SF-539 was 45.5 µM (inactive); in the assay on SK-MEL-2, > 100 µM (inactive); in the assay on SNB-75, 47.4 µM (inactive); with TK-10 it was 39.6 µM (inactive).

Consider `COc1ccc(/C=C/c2nnc(S)[nH]2)cc1`, for which the GI50 with A498, with CAKI-1, in the assay with EKVX, in the assay on HCT-116, with KM-20L2 and with LOX IMVI was > 100 µM (inactive) each time. Moreover, the GI50 with M19-MEL, in the assay with MOLT-4, with NCI-H226, in the assay on NCI-H460, in the assay on SF-295 and in the assay with SF-539 was > 100 µM (inactive) each time. Besides, the GI50 with SK-MEL-2, in the assay on SNB-75 and in the assay on TK-10 was > 100 µM (inactive) each time.

For the compound `Cc1nc(C(N)=S)sc1C(=O)/C=C/c1c(O)ccc2ccccc12`, the GI50 is > 100 µM (inactive) in the assay on A498; > 87.5 µM (inactive) in the assay with CAKI-1; > 100 µM (inactive) with COLO 205; > 100 µM (inactive) in the assay on EKVX; 80.2 µM (inactive) in the assay with HCT-116; > 100 µM (inactive) in the assay on KM-20L2. Moreover, the GI50 in the assay with LOX IMVI is 26 µM (inactive); with M19-MEL, 13.8 µM (inactive); with MOLT-4, 21.2 µM (inactive); with NCI-H226, > 100 µM (inactive); with NCI-H460, > 100 µM (inactive); in the assay on SF-295, 51.5 µM (inactive). Further, the GI50 with SF-539 was 70.1 µM (inactive); in the assay with SK-MEL-2 it was > 100 µM (inactive); in the assay on SNB-75 it was 53.7 µM (inactive); in the assay with TK-10, > 100 µM (inactive).

As for `COc1cc(C=O)c(-c2cc(OC)c(OC)cc2C=O)cc1OC`, the GI50 in the assay with A498 was > 100 µM (inactive); in the assay with CAKI-1 it was > 100 µM (inactive); in the assay on COLO 205, > 100 µM (inactive); in the assay with EKVX, > 100 µM (inactive); in the assay with HCT-116 it was 70.3 µM (inactive); in the assay on KM-20L2, > 100 µM (inactive). Further, the GI50 is 13.7 µM (inactive) with LOX IMVI; > 100 µM (inactive) with M19-MEL; 50.6 µM (inactive) in the assay on MOLT-4; > 100 µM (inactive) with NCI-H226; 90.4 µM (inactive) in the assay with NCI-H460; > 100 µM (inactive) in the assay on SF-295. Besides, the GI50 with SF-539 is > 100 µM (inactive); with SK-MEL-2, 67 µM (inactive); with SNB-75, > 100 µM (inactive); in the assay on TK-10, > 100 µM (inactive).

Consider `CC(=O)OCC1OC(n2c(=O)n(-c3ccccc3)c(=O)c3ccccc32)C(OC(C)=O)C(OC(C)=O)C1OC(C)=O` (centres undefined), for which the GI50 with A498 was > 100 µM (inactive); in the assay with CAKI-1, > 100 µM (inactive); with COLO 205 it was > 100 µM (inactive); in the assay on EKVX, > 100 µM (inactive); in the assay on HCT-116 it was 96.6 µM (inactive); with KM-20L2 it was > 100 µM (inactive). For the same compound, the GI50 with LOX IMVI, in the assay with M19-MEL, in the assay with MOLT-4, with NCI-H226, with NCI-H460 and with SF-295 was > 100 µM (inactive) throughout. Further, the GI50 in the assay with SF-539, with SK-MEL-2, in the assay on SNB-75 and in the assay with TK-10 was > 100 µM (inactive) throughout.

As to `C[N+](C)(C)CC1CCC(C[N+](C)(C)C)C1=NO` (centres undefined), the GI50 in the assay on A498, with COLO 205, with EKVX, with HCT-116, in the assay on KM-20L2 and with LOX IMVI was > 100 µM (inactive) each time. The GI50 with M19-MEL, with MOLT-4, in the assay on NCI-H226, in the assay on SF-295, in the assay on SF-539 and in the assay on SK-MEL-2 was > 100 µM (inactive) each time. Moreover, in the assay on SNB-75, the GI50 is > 100 µM (inactive).

As for `CCCC(=O)N[C@H]1CCc2cc(OC)c(OC)c(OC)c2-c2ccc(SC)c(=O)cc21`, the GI50 in the assay with A498 was < 0.01 µM (active); in the assay with CAKI-1, < 0.01 µM (active); in the assay on COLO 205, < 0.01 µM (active); in the assay on DU-145, < 0.01 µM (active); in the assay with EKVX, 51.9 µM (inactive); with HCT-116, < 0.01 µM (active). For the same compound, the GI50 with KM-20L2 was < 0.01 µM (active); in the assay with LOX IMVI, < 0.01 µM (active); in the assay with M19-MEL it was < 0.01 µM (active); in the assay with MDA-MB-231, < 10 nM (active); with MOLT-4, < 0.01 µM (active); with NCI-H226, < 0.0465 µM (active). Further, the GI50 in the assay with NCI-H460 is < 0.01 µM (active); with PC-3 it was < 10 nM (active); in the assay on SF-295 it was < 0.01 µM (active); in the assay with SF-539 it was < 0.01 µM (active); in the assay on SK-MEL-2, < 0.01 µM (active); in the assay on SNB-75 it was < 0.01 µM (active). Also, the results for the GI50 in the assay on T47D and in the assay with TK-10 were > 100 µM (inactive) and < 0.0411 µM (active), respectively.

Consider `O=c1oc2c(O)c(O)c(O)c3c(=O)oc4c(O)c(O)cc1c4c23` [FLAVELLAGIC ACID], for which the GI50 in the assay on A498 is > 100 µM (inactive); in the assay on CAKI-1 it was > 100 µM (inactive); with COLO 205, 99.5 µM (inactive); in the assay with EKVX it was > 100 µM (inactive); in the assay on HCT-116, 89.9 µM (inactive); in the assay on KM-20L2 it was > 100 µM (inactive). Also, the GI50 was 18 µM (inactive) in the assay on LOX IMVI; 9.79 µM (inactive) in the assay on M19-MEL; 25.9 µM (inactive) with MOLT-4; 83 µM (inactive) in the assay with NCI-H226; > 100 µM (inactive) in the assay with NCI-H460; 23.8 µM (inactive) with SF-295. Also, the GI50 was > 100 µM (inactive) with SF-539, > 100 µM (inactive) in the assay on SK-MEL-2, 47.6 µM (inactive) in the assay on SNB-75 and > 100 µM (inactive) in the assay with TK-10.
